In patent publication US11958868B2, “Methods of using metal complexes to promote wound healing” (University of Macau, priority 2022, dated 2024):
Like-named read-outs stand apart in the source and are kept apart here.

Columns and labels:
[1] = tested on: wound tissue of normal and diabetic mice; experiment: Wound tissue analysis (H&E, Masson's trichrome, laser doppler, CD31, Western blot, qRT-PCR) in normal and diabetic mice; assay type: in vivo
Source text: (A) Timeline for in vivo experiments. (B) Image of representative wound (left) and wound closure rate (right) (n=5 mice). (C) H&E and Masson's trichrome staining of dorsal skin section and skin thickness from the top of the epidermis to the bottom of the dermis in mice after 8 days post-injury (n=4 mice). Scale bar=200 μm. (D) Laser doppler imager in dorsal skin: representative images were shown for each group (left) and baseline perfusion on back skin of mice (right) after 2 days post-injury (dotted line circle represents the wound bed in mice of each group and arrow represents perfusion intensity (n=5 mice). (E) CD31 and DAPI double staining in wound bed of mice after 8 days post-injury (n=4 mice). Scale bar=50 μm. Data are expressed as means±SD, P values were calculated using a one-way ANOVA with Tukey's multiple comparison test. #P<0.05, ##P<0.01 WT vs. db/db, *P<0.05, **P<0.01 1a vs. vehicle.
(A) Western blot analyses and quantitation of HIF-1α, VEGF, GLUT1, and EPO in wound tissue (n=3 mice). All proteins were normalized by β-actin. (B) The mRNA levels of HIF-1α target genes involved in wound healing were analyzed by qRT-PCR in wound tissues (n=5 mice). Data are expressed as means±SD, P values were calculated using a one-way ANOVA with Tukey's multiple comparison test. P<0.05, P<0.01 WT vs. db/db, *P<0.05, **P<0.01 1a vs. vehicle. S
The epithelial thickness of the regenerated skin in each group was compared using H&E staining and Masson's trichrome staining. […] One of the key processes related to wound healing is tissue angiogenesis.
After electrophoresis of protein samples (30 μg of total protein) on SDS-PAGE gels, the samples were transferred to a PVDF membrane and incubated at room temperature with blocking solution for 1 h. The membrane was treated with primary antibodies and incubated overnight at 4° C. After 1 h incubation with the secondary antibodies (Supplementary Table Sl), protein bands were visualized using ECL Western Blotting Detection Reagent (GE Healthcare).
After fixation in 4% paraformaldehyde, the skin samples were embedded in paraffin and sectioned ([…]). For histological evaluation, sections were deparaffinized and rehydrated followed by hematoxylin and eosin (H&E) and Masson's trichrome staining. For immunohistochemical staining of CD31, the wound tissue sections were deparaffinized and stained with CD31 antibody (1:1000; ABclonal, Cambridge, MA, USA). The slides were examined under ×400 magnification to identify the area with the highest vascular density, and five randomly high-power field areas of the highest microvessel density were selected for each section. The average was calculated as the microvessel density of this sample.

[2] = tested on: HIF-1α, VEGF, GLUT1 and EPO levels in HEK293 cells; experiment: Western blotting of HIF-1α and HIF-1α target gene products in HEK293 cells; assay type: cell-based, Human; conditions: 2 h
Method: FIG. 3 depicts the effect of complex 1a on HIF-1α target gene products in cellulo. (A) Effect of complex 1a on specific proteins (GLUT1, VEGF, and EPO) mediated by HIF-1α in HEK293 cells. HEK293 cells were treated with 1a for 2 h. Cell lysis were collected and analyzed by the Western blotting. (B) Complex 1a has no effect on HIF-1α accumulation in a VHL null cancer cell line. A498 (VHL-null), or HEK293 cells were treated with 1% DMSO, 1a (3 μM), VH298 (100 μM), and FG-4592 (100 μM) for 2 h before lysis. (C) Effect of complex 1a on EPO, GLUT1, and VEGF levels in HEK293 cells with or without HIF-1α knockdown. Left: The expression levels of EPO, GLUT1, and VEGF in HEK293 cells with or without knockdown HIF-1α in the presence or absence of 1a. Right: Densitometry analysis of EPO, GLUT1, and VEGF levels on the Western blot. HIF-1α siRNA [sense, 5′-[…]-3′ (SEQ ID NO:1), antisense, 5′-[…]-3′ (SEQ ID NO:2)]. Negative control (NC) siRNA [sense, 5′-[…]-3′ (SEQ ID NO:3), antisense, 5′-[…]-3′ (SEQ ID NO:4)]. Data are expressed as means±SD (n=3 independent experiments), P values were calculated using a two-sided t-test. #P<0.05, P<0.01 HIF-1α siRNA vs. NC siRNA, *P<0.05, **P<0.01 1a vs. vehicle/DMSO group, respectively.
Therefore, the effect of complex 1a on HIF-1α and HIF-1α target protein levels in cellulo was investigated. […]

[3] = target: T1, His-tagged recombinant VBC protein complex (Homo sapiens, UniProt P40337); experiment: Biolayer interferometry (BLI); assay type: binding; conditions: for Kd: 1:1 interaction, 0.78-12.5 μM
T1 construct: made in house
T1 sequence (P40337 whole entry): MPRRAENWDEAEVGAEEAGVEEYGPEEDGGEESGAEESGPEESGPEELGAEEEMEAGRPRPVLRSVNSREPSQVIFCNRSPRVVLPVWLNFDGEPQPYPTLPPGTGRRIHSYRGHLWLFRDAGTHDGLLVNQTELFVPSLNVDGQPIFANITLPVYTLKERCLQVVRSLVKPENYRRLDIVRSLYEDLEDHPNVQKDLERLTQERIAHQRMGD
T1 sequence (Q15370 whole entry partner): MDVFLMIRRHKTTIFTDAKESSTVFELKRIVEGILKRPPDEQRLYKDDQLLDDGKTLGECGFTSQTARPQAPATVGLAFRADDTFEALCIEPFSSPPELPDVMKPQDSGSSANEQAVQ
T1 sequence (Q15369 whole entry partner): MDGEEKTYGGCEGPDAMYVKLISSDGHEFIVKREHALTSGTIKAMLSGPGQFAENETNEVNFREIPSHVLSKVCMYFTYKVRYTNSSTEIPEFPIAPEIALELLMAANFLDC
Method: HEK293 cells were treated with vehicle DMSO (1% for 2 h), 1a (0.3, 1, 3, 6 and 9 μM for 2 h), VH298 (100 μM for 2 h), MG132 (20 μM for 3 h), or FG-4592 (100 μM for 2 h) before lysis. Cell lysates were collected and incubated with VHL antibody overnight at 4° C. The proteins were immunoprecipitated using agarose beads. The levels of hydroxy-HIF-1α co-precipitated with VHL were detected using a hydroxy-HIF-1α antibody, and then visualized using ECL Western Blotting Detection Reagent (GE Healthcare). (B) Cellular thermal shift assays to monitor cellular target engagement of VHL and HIF-1α. HEK293 cell lysates were treated with 1a (3 μM) at room temperature for 30 min and then heated at different temperature ranging from 48° C. to 68° C. for 5 min. The protein samples were collected and detected by Western blotting using either VHL or PHD2 antibodies. (C) Fluorescence-based protein thermal shift assay of VBC in the presence or absence of VH298 (100 μM) and complex 1a (100 μM). (D) ITC titration of complex 1a (300 μM) into recombinant VHL protein (30 μM). ITC experiments were carried in a MicroCal PEAQ-ITC Isothermal Titration Calorimeter (Malvern Panalytical). […] (F) Biolayer interferometry (BLI) kinetic analysis of the interaction between complex 1a and VBC. VBC was surface-immobilized to Ni-NTA biosensors. […] Data are expressed as means±SD (n=3 independent experiments for figures a and b, samples for figures c and e), P values were calculated using a two-sided t-test. *P<0.05, **P<0.01 vs. DMSO group.
After incubating HEK293 cell lysates with complex 1a followed by heating to set temperatures, VHL and PHD2 levels in the soluble fraction were quantitated by Western blotting.

[4] = normal and diabetic mice, 8 days post-injury

COc1cc[n+]2c3c1ccc1c(OC)cc[n+](c13)[Ir-3]213([c]2ccccc2-c2cccc[n+]21)[c]1ccccc1-c1cccc[n+]13.F[P-](F)(F)(F)(F)F [1a]
HIF-1α target genes in wound tissue, qRT-PCR, WT/NC mice ([1]; WT/NC mice): weaker effects | Expression of HIF-1α, VEGF, GLUT1 and EPO in wound tissue (Western blotting) ([1]; WT/NC, db/db, HFD/STZ and STZ groups, 8 days post-wounding, vs vehicle): significantly increased | HIF-1α target genes (HSP-90, VEGFR-1, SDF-1, SCF, Tie-2) in wound tissue, qRT-PCR, diabetic mice ([1]; diabetic mice): also increased in the wound tissue of 1a-treated diabetic mice | Microvessel density in wound areas (CD31 immunostaining) ([1]; normal and diabetic groups, 8 days post-injury): significantly enhanced microvessel density | Skin blood flow rate (skin perfusion pressure test) ([1]; normal and diabetic mice, 2 days post-injury): remarkably increased skin blood flow rate | Collagen deposition in wound areas [1, 4]: enhanced collagen deposition in wound areas | Skin thickness (H&E, Masson's trichrome) [1, 4]: increased skin thickness | Expression levels of HIF-1α, VEGF, GLUT1 and EPO [2]: increased in a dose-dependent manner | koff (BLI) [3]: 0.0352 s⁻¹ | kon (BLI) [3]: 522 M⁻¹ s⁻¹ | Kd ([3]; read-out: Kd (BLI, kinetic fit)): 6.74 ± 0.19 µM | Kd ([3]; read-out: Kd (BLI, steady state fit)): 5.8 ± 0.64 µM
